Reference: publication PMC12090182, “Repurposing of the RIPK1-Selective Benzo[1,4]oxazepin-4-one Scaffold for the Development of a Type III LIMK1/2 Inhibitor” (ACS Chemical Biology, 2025)
Like-named read-outs stand apart in the source and are kept apart here.

System: HEK293T cells
Assay type: cell-based
Method in brief: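 HEK293T and U2OS cells (DMEM) and MRC-9 fibroblasts (EMEM) exposed to compounds at 1 and 10 μM. Live-cell confocal imaging of cell shape and fluorescence before and at 12, 24 and 48 h. Normalized to 0.1% DMSO; biological duplicates with SEM.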

[1] = 1 µM, 0 h, HEK293T, replicate 2
[2] = 1 µM, 12 h, HEK293T, replicate 2
[3] = 1 µM, 24 h, HEK293T, replicate 2
[4] = 1 µM, 48 h, HEK293T, replicate 1
[5] = 1 µM, 48 h, HEK293T, replicate 2
[6] = 10 µM, 0 h, HEK293T, replicate 2
[7] = 10 µM, 12 h, HEK293T, replicate 2
[8] = 10 µM, 24 h, HEK293T, replicate 2
[9] = 10 µM, 48 h, HEK293T, replicate 2
[10] = HEK293T, 1 µM, 0 h after treatment
[11] = HEK293T, 1 µM, 12 h after treatment
[12] = HEK293T, 1 µM, 24 h after treatment
[13] = HEK293T, 10 µM, 0 h after treatment
[14] = HEK293T, 10 µM, 12 h after treatment
[15] = HEK293T, 10 µM, 24 h after treatment
[16] = HEK293T, 10 µM, 48 h after treatment

Structure (SMILES): CN1C(=O)[C@@H](N2CCc3c(nn(Cc4ccccc4)c3C(N)=O)C2=O)COc2cc(Cl)ccc21 [Compound 10, (S)-2-benzyl-6-(8-chloro-5-methyl-4-oxo-2,3,4,5-tetrahydrobenzo[b][1,4]oxazepin-3-yl)-7-oxo-4,5,6,7-tetrahydro-2H-pyrazolo[3,4-c]pyridine-3-carboxamide]
- Cell count normalized to cells treated with DMSO control [1]: 0.9791
- Cell count per well [1]: 224
- Population Fragmented Nuclei (%) [1]: 4.50%
- Population Healthy Nuclei (%) [1]: 67.00%
- Population Pyknosed Nuclei (%) [1]: 28.50%
- Population apoptotic cell (%) [1]: 66.67%
- Population cell that influence microtubule strucutre (%) [1]: 23.88%
- Population with increased mitochondrial mass (%) [1]: 83.58%
- Population with membrane disruption (%) [1]: 0.00%
- Cell count normalized to cells treated with DMSO control [2]: 1.07
- Cell count per well [2]: 375
- Population Fragmented Nuclei (%) [2]: 6.44%
- Population Healthy Nuclei (%) [2]: 80.67%
- Population Pyknosed Nuclei (%) [2]: 12.89%
- Population apoptotic cell (%) [2]: 23.91%
- Population cell that influence microtubule strucutre (%) [2]: 20.49%
- Population with increased mitochondrial mass (%) [2]: 45.83%
- Population with membrane disruption (%) [2]: 0.69%
- Cell count normalized to cells treated with DMSO control [3]: 1.152
- Cell count per well [3]: 520
- Population Fragmented Nuclei (%) [3]: 9.33%
- Population Healthy Nuclei (%) [3]: 82.94%
- Population Pyknosed Nuclei (%) [3]: 7.74%
- Population apoptotic cell (%) [3]: 43.59%
- Population cell that influence microtubule strucutre (%) [3]: 13.64%
- Population with increased mitochondrial mass (%) [3]: 27.75%
- Population with membrane disruption (%) [3]: 0.24%
- Cell count normalized to cells treated with DMSO control [4]: 1.025
- Cell count per well [4]: 1037
- Population Fragmented Nuclei (%) [4]: 16.00%
- Population Healthy Nuclei (%) [4]: 79.80%
- Population Pyknosed Nuclei (%) [4]: 4.20%
- Population apoptotic cell (%) [4]: 6.98%
- Population cell that influence microtubule strucutre (%) [4]: 10.88%
- Population with increased mitochondrial mass (%) [4]: 12.47%
- Population with membrane disruption (%) [4]: 2.32%
- Cell count normalized to cells treated with DMSO control [5]: 1.189
- Cell count per well [5]: 812
- Population Fragmented Nuclei (%) [5]: 18.11%
- Population Healthy Nuclei (%) [5]: 75.56%
- Population Pyknosed Nuclei (%) [5]: 6.33%
- Population apoptotic cell (%) [5]: 17.65%
- Population cell that influence microtubule strucutre (%) [5]: 11.82%
- Population with increased mitochondrial mass (%) [5]: 11.00%
- Population with membrane disruption (%) [5]: 1.97%
- cytotoxicity (1 μM, HEK293T): no cytotoxicity
- Cell count normalized to cells treated with DMSO control [6]: 0.8086
- Cell count per well [6]: 185
- Population Fragmented Nuclei (%) [6]: 2.99%
- Population Healthy Nuclei (%) [6]: 66.47%
- Population Pyknosed Nuclei (%) [6]: 30.54%
- Population apoptotic cell (%) [6]: 64.71%
- Population cell that influence microtubule strucutre (%) [6]: 27.03%
- Population with increased mitochondrial mass (%) [6]: 85.59%
- Population with membrane disruption (%) [6]: 0.00%
- Cell count normalized to cells treated with DMSO control [7]: 0.8449
- Cell count per well [7]: 296
- Population Fragmented Nuclei (%) [7]: 7.69%
- Population Healthy Nuclei (%) [7]: 76.54%
- Population Pyknosed Nuclei (%) [7]: 15.77%
- Population apoptotic cell (%) [7]: 63.41%
- Population cell that influence microtubule strucutre (%) [7]: 38.69%
- Population with increased mitochondrial mass (%) [7]: 77.89%
- Population with membrane disruption (%) [7]: 0.00%
- Cell count normalized to cells treated with DMSO control [8]: 0.8682
- Cell count per well [8]: 392
- Population Fragmented Nuclei (%) [8]: 11.70%
- Population Healthy Nuclei (%) [8]: 77.99%
- Population Pyknosed Nuclei (%) [8]: 10.31%
- Population apoptotic cell (%) [8]: 56.76%
- Population cell that influence microtubule strucutre (%) [8]: 28.21%
- Population with increased mitochondrial mass (%) [8]: 65.71%
- Population with membrane disruption (%) [8]: 0.00%
- Cell count normalized to cells treated with DMSO control [9]: 0.7573
- Cell count per well [9]: 517
- Population Fragmented Nuclei (%) [9]: 16.37%
- Population Healthy Nuclei (%) [9]: 77.05%
- Population Pyknosed Nuclei (%) [9]: 6.59%
- Population apoptotic cell (%) [9]: 39.39%
- Population cell that influence microtubule strucutre (%) [9]: 19.17%
- Population with increased mitochondrial mass (%) [9]: 40.93%
- Population with membrane disruption (%) [9]: 0.00%
- toxicity (10 μM, within the 48 h time frame, b30 names HEK293T (apoptotic cell population)): slight increase in toxicity
- impact on tubulin, mitochondrial mass, and cellular permeability in healthy cells (HEK293T, 1 μM (Figure 6)): comparable to that of the 0.1% DMSO control
- Cell count normalized to cells treated with DMSO control [10]: 1.066
- Cell count per well [10]: 318
- Population Fragmented Nuclei (%) [10]: 7.28%
- Population Healthy Nuclei (%) [10]: 48.28%
- Population Pyknosed Nuclei (%) [10]: 44.44%
- Population apoptotic cell (%) [10]: 40.52%
- Population cell that influence microtubule strucutre (%) [10]: 21.43%
- Population with increased mitochondrial mass (%) [10]: 63.49%
- Population with membrane disruption (%) [10]: 0.00%
- Cell count normalized to cells treated with DMSO control [11]: 1.032
- Cell count per well [11]: 470
- Population Fragmented Nuclei (%) [11]: 6.59%
- Population Healthy Nuclei (%) [11]: 81.41%
- Population Pyknosed Nuclei (%) [11]: 12.00%
- Population apoptotic cell (%) [11]: 25.49%
- Population cell that influence microtubule strucutre (%) [11]: 28.03%
- Population with increased mitochondrial mass (%) [11]: 37.86%
- Population with membrane disruption (%) [11]: 0.58%
- Cell count normalized to cells treated with DMSO control [12]: 1.043
- Cell count per well [12]: 633
- Population Fragmented Nuclei (%) [12]: 13.01%
- Population Healthy Nuclei (%) [12]: 77.59%
- Population Pyknosed Nuclei (%) [12]: 9.39%
- Population apoptotic cell (%) [12]: 29.82%
- Population cell that influence microtubule strucutre (%) [12]: 18.05%
- Population with increased mitochondrial mass (%) [12]: 21.02%
- Population with membrane disruption (%) [12]: 0.85%
- Cell count normalized to cells treated with DMSO control [13]: 0.8779
- Cell count per well [13]: 262
- Population Fragmented Nuclei (%) [13]: 12.05%
- Population Healthy Nuclei (%) [13]: 39.73%
- Population Pyknosed Nuclei (%) [13]: 48.21%
- Population apoptotic cell (%) [13]: 50.00%
- Population cell that influence microtubule strucutre (%) [13]: 14.61%
- Population with increased mitochondrial mass (%) [13]: 59.55%
- Population with membrane disruption (%) [13]: 0.00%
- Cell count normalized to cells treated with DMSO control [14]: 0.8806
- Cell count per well [14]: 401
- Population Fragmented Nuclei (%) [14]: 9.68%
- Population Healthy Nuclei (%) [14]: 77.15%
- Population Pyknosed Nuclei (%) [14]: 13.17%
- Population apoptotic cell (%) [14]: 46.94%
- Population cell that influence microtubule strucutre (%) [14]: 42.51%
- Population with increased mitochondrial mass (%) [14]: 57.84%
- Population with membrane disruption (%) [14]: 0.00%
- Cell count normalized to cells treated with DMSO control [15]: 0.8057
- Cell count per well [15]: 489
- Population Fragmented Nuclei (%) [15]: 10.83%
- Population Healthy Nuclei (%) [15]: 78.34%
- Population Pyknosed Nuclei (%) [15]: 10.83%
- Population apoptotic cell (%) [15]: 43.14%
- Population cell that influence microtubule strucutre (%) [15]: 28.46%
- Population with increased mitochondrial mass (%) [15]: 48.51%
- Population with membrane disruption (%) [15]: 0.27%
- Cell count normalized to cells treated with DMSO control [16]: 0.8197
- Cell count per well [16]: 829
- Population Fragmented Nuclei (%) [16]: 23.14%
- Population Healthy Nuclei (%) [16]: 71.74%
- Population Pyknosed Nuclei (%) [16]: 5.12%
- Population apoptotic cell (%) [16]: 33.33%
- Population cell that influence microtubule strucutre (%) [16]: 14.26%
- Population with increased mitochondrial mass (%) [16]: 26.32%
- Population with membrane disruption (%) [16]: 0.51%
